Here are results for eight compounds from patent US20100159030A1, “METHODS FOR DETECTING AND MODULATING THE SENSITIVITY OF TUMOR CELLS TO ANTI-MITOTIC AGENTS AND FOR MODULATING TURMORGENICITY” (NewSouth Innovations Pty Limited, priority 2007, published 2010).

Counter-ions that a name gives are not always drawn. Like-named read-outs stand apart in the source and are kept apart here.

The test system of one assay is Calu-6 cells. Description: Drug-treated clonogenic assay on siRNA-transfected cells. The following applies: βIII-tubulin siRNA silencing vs controls. Format: cell-based, Human. The procedure:
(§1) Cells were transfected for 24 h and approximately 600 cells (for Calu-6) or 150 cells (for H460) were seeded into each well of a 6-well plate and allowed to attach for 4-6 h. The cell lines used in this study were not subject to prior drug selection, and are likely to represent intrinsic drug resistance observed in lung carcinoma.
(§2) Cells were then treated with increasing concentrations of various anti-mitotic drugs. Following a 3-day incubation at 37° C., the drug-containing medium was removed and replaced with fresh complete medium. Medium was changed at 3-4 day intervals for 7 to 10 days until visible colonies formed. […] Surviving colonies were simultaneously fixed and stained with 0.5% crystal violet in methanol, rinsed with water to remove excess stain and air-dried overnight.
(§3) The colonies in each well were manually counted, and the results were presented as surviving fraction according to the formula: surviving fraction was calculated as follows: colony number/(number of cells seeded×plating efficiency), where plating efficiency is equivalent to the colony number divided by the number of cells seeded in the drug-free medium. Dose-response curves were plotted for each drug-cell line combination and inhibitory dose (ID50) values were extrapolated from this curve using GraphPad Prism program (GraphPad Software, version 4, San Diego, Calif.). ID50 was defined as the concentration of the drug required to reduce the number of colonies in drug-treated wells to 50% of that of the relevant untreated control wells. The ID50 values were the means of at least four independent experiments.
(§4) To quantitate any change in drug sensitivity, drug treated clonogenic assays were performed. Twenty-four hours after siRNA transfection, cells were harvested and plated into 6-well plates for 6 h, prior to the addition of various drugs as indicated in the figure legends. After 72 h incubation, the drug-containing media was removed and replaced with complete growth media. Medium was changed every 3 days for 7 to 10 days until visible colonies formed. Colonies were simultaneously fixed and stained with 0.5% crystal violet in methanol, and manually counted. Individual stained colonies in each well were counted and the surviving fraction was calculated as follows: colony number/(number of cells seeded×plating efficiency), where plating efficiency equals the colony number divided by the number of cells seeded in drug-free media.

Another assay relates to NSCLC H460 cells. Description: Drug-treated clonogenic assay (surviving fraction, ID50) on siRNA/shRNA-transfected cells. In kind it is cell-based, Human. The following applies: for IC50: Homo sapiens, read-out: ID50 (the source's name); for change in drug sensitivity (clonogenic survival): H460. As for the experimental part: as §1, §2, §3, §4
The subject of a further assay is CCRF-CEM Leukaemia cells. In kind it is cell-based. Conditions: for cross-resistance of the 2ME2-resistant cells: 2ME2-resistant sublines. An excerpt:
The tubulin-binding agent 2-methoxyestradiol (2ME2) binds to β-tubulin near the colchicine-binding site, inhibits microtubule polymerization, and induces mitotic arrest. CCRF-CEM Leukaemia cells that display increasing resistance to 2ME2 were selected, and four of the highly 2ME2 resistant leukaemia sublines were chosen for detailed analysis.

[1] abbreviates: NCI-H460, Table 1A, control siRNA-transfected H460 cells.
Setting [2] is: NCI-H460, Table 1A, mock-transfected H460 cells.
The mark [3] stands for this setting: NCI-H460, Table 1A, βII siRNA-transfected H460 cells.
Where [4] appears, read: NCI-H460, Table 1B, control siRNA-transfected H460 cells.
The mark [5] stands for this setting: NCI-H460, Table 1B, mock-transfected H460 cells.
The mark [6] stands for this setting: NCI-H460, Table 1B, βIVb siRNA-transfected H460 cells.
Where [7] appears, read: βIII-tubulin siRNA silencing vs controls.
The mark [8] stands for this setting: class II β-tubulin siRNA knockdown vs controls.

Take `CCC1=C[C@@H]2CN(C1)Cc1c([nH]c3ccccc13)[C@@](C(=O)OC)(c1cc3c(cc1OC)N(C)[C@H]1[C@@](O)(C(=O)OC)[C@H](OC(C)=O)[C@]4(CC)C=CCN5CC[C@]31[C@@H]54)C2` [Vinorelbine, vinorelbine]: the “change in drug sensitivity (clonogenic survival)” value (shortened to “change in drug sensitivity”) in the assay on Calu-6 cells and with NSCLC H460 cells (setting [7]) was “enhanced sensitivity” each time. Moreover, the IC50 amounted to 5.78 nM with NSCLC H460 cells (setting [1]); 6.34 nM with NSCLC H460 cells (setting [2]); 4.04 nM with NSCLC H460 cells (setting [3]); 6.52 nM in the assay on NSCLC H460 cells (setting [4]); 6.95 nM in the assay with NSCLC H460 cells (setting [5]); 5.43 nM in the assay on NSCLC H460 cells (setting [6]).
For `CC[C@]12C=CCN3CC[C@@]4(c5cc([C@@]6(C(=O)OC)C[C@@H]7C[C@@H](C(C)(F)F)CN(Cc8c6[nH]c6ccccc86)C7)c(OC)cc5N(C)[C@H]4[C@@](O)(C(=O)OC)[C@@H]1OC(C)=O)[C@@H]32` [Vinflunine, vinflunine], the IC50 in the assay with NSCLC H460 cells (setting [1]) was found to be 29.9 nM; in the assay with NSCLC H460 cells (setting [2]), 31 nM; in the assay with NSCLC H460 cells (setting [3]) it was 19 nM; in the assay on NSCLC H460 cells (setting [4]), 30.5 nM; in the assay with NSCLC H460 cells (setting [5]) it was 31.7 nM; in the assay on NSCLC H460 cells (setting [6]), 19.2 nM.
`COc1cc([C@@H]2c3cc4c(cc3[C@@H](O[C@@H]3O[C@@H]5CO[C@@H](C)O[C@H]5[C@H](O)[C@H]3O)[C@H]3COC(=O)[C@H]23)OCO4)cc(OC)c1O` [VP-16, Etoposide]: the “change in drug sensitivity” value in the assay with NSCLC H460 cells (setting [7]) is “increased sensitivity”.
As for `COc1cc2c(cc1O)CC[C@@H]1[C@@H]2CC[C@]2(C)[C@@H](O)CC[C@@H]12` [2ME2, 2-methoxyestradiol], the “change in drug sensitivity” value in the assay with NSCLC H460 cells (setting [8]) was “significantly increased sensitivity”.
On to `COc1cc2c(c(OC)c1OC)-c1ccc(OC)c(=O)cc1[C@@H](NC(C)=O)CC2` [colchicine], for which, in the assay with CCRF-CEM Leukaemia cells, the “cross-resistance of the 2ME2-resistant cells” value is given as “not cross resistant”. The cross-resistance entry with CCRF-CEM Leukaemia cells (lowest resistant subline CEM/2ME2-3.6R only) is given as “cross-resistance”. The “change in drug sensitivity” value with NSCLC H460 cells (setting [8]) is given as “significantly increased sensitivity”.
Take `CC[C@]1(O)C[C@@H]2CN(CCc3c([nH]c4ccccc34)[C@@](C(=O)OC)(c3cc4c(cc3OC)N(C)[C@H]3[C@@](O)(C(=O)OC)[C@H](OC(C)=O)[C@]5(CC)C=CCN6CC[C@]43[C@@H]65)C2)C1` [Vinblastine, vinblastine]: the IC50 with NSCLC H460 cells (setting [1]) was 0.749 nM; with NSCLC H460 cells (setting [2]), 0.658 nM; in the assay with NSCLC H460 cells (setting [3]), 0.437 nM; in the assay on NSCLC H460 cells (setting [4]) it was 0.615 nM; in the assay on NSCLC H460 cells (setting [5]) it was 0.674 nM; with NSCLC H460 cells (setting [6]) it was 0.173 nM.
As to `C/C(=C\c1csc(C)n1)[C@@H]1C[C@@H]2O[C@]2(C)CCC[C@H](C)[C@H](O)[C@@H](C)C(=O)C(C)(C)[C@@H](O)CC(=O)O1` [epothilone B], in the assay with CCRF-CEM Leukaemia cells, the “cross-resistance of the 2ME2-resistant cells” value is given as “hypersensitive”. Moreover, the “change in drug sensitivity” value is “increased the sensitivity” with Calu-6 cells, “no significant change in drug sensitivity” with NSCLC H460 cells (setting [8]), “significantly more resistant” in the assay on NSCLC H460 cells (class IVb β-tubulin siRNA knockdown vs controls) and “increased the sensitivity” with NSCLC H460 cells (setting [7]).
On to `COc1cccc2c1C(=O)c1c(O)c3c(c(O)c1C2=O)C[C@@](O)(C(=O)CO)C[C@@H]3O[C@H]1C[C@H](N)[C@H](O)[C@H](C)O1` [doxorubicin, doxorubicin hydrochloride], for which the “change in drug sensitivity” value in the assay with NSCLC H460 cells (setting [7]) is recorded as “increased sensitivity”.
